Measured values: US20030166213A1, “Methods for identifying compounds that modulate disorders related to nitric oxide/ cGMP-dependent protein kinase signaling” (priority 2000, published 2003)
Entries after “also recorded” stand apart in the source; their conditions may differ.

System: Drosophila melanogaster
Experiment: Effects of methylphenidate on rest (sleep) in flies, Drosophila Activity Monitoring System
Assay type: in vivo
Conditions: wild-type Canton-S virgin female flies; 0.5 mg/ml methylphenidate dissolved in the food; transferred two hours before lights-off; rest over the following 14 hours vs baseline; p<0.05
Method: Wild-type Canton-S (CS) flies were placed into a 50 ml vial containing yeast, dark corn syrup and agar food. Each colony was housed at 25° C. with a relative humidity of 50% in a Forma Scientific incubator. The flies were maintained on a 12:12 light/dark cycle with “lights-on” commencing at 8:00 am and “lights-off” commencing at 8:00 pm to yield darkness. Virgin females were collected and maintained in 50 ml vials for one day. During the second day, flies were individually placed into glass tubes (65 mm in length, 5 mm I.D.) containing about lomm of fresh food and the tubes were placed into the Drosophila Activity Monitoring System (Trikinetics, Waltham, Mass.). The flies remained undisturbed for the following 48 hours. The amount and distribution of rest was evaluated during the third day to ensure that the flies had adapted to the apparatus as previously described in Shaw et. al., Science 287:1834-1837 (2000). On day 4, two hours before lights-off, flies were transferred to fresh glass tubes containing only standard laboratory food or to tubes with 0.5 mg/ml methylphenidate that had been dissolved in the food. The amount and distribution of rest during the following 14 hours was then evaluated.

COC(=O)C(c1ccccc1)C1CCCCN1 (stereo not shown) [methylphenidate]
amount and distribution of rest: rest was significantly reduced compared to baseline; also recorded: significant and substantial decrease in rest
